From patent US20240425857A1, “Means and Methods for Chronic Wound Healing” (VIB VZW, priority 2021, published 2024)
“Also recorded” adds a separate entry of the source.

What was measured:
[1] = system: dendritic cells (BMDC); assay: Efferocytosis assay: dendritic cells incubated with apoptotic Jurkat cells (flow cytometry or Incucyte live-cell imaging); assay type: cell-based, mouse; conditions: apoptotic Jurkat targets; for efferocytosis (apoptotic cell uptake) by dendritic cells: 1:5 phagocyte:target ratio, cells pretreated 1 hour with the substance; for erastin-dependent increase in efferocytosis by dendritic cells: inhibitor given together with 5 μM erastin
Method: (§1) Efferocytosis assays. For induction of apoptosis, human Jurkat T cells were with stained with CypHerSE (#PA15401, GE Healthcare) or TAMRA (#C-1171, Invitrogen) or pHrodo™ Green STP Ester (#P35369, ThermoFisher), resuspended in RPMI with 5% fetal calf serum, treated with 150 mJ/cm^2 ultraviolet C irradiation (Stratalinker) and incubated for 4 h at 37° C. with 5% CO2. Dendritic cells were incubated with apoptotic targets at a 1:5 phagocyte: target ratio for the indicated times. Phagocytosis was assessed by a flow cytometry-based assay^21 or by Incucyte Live-cell imaging. As alternative targets for phagocytosis, dendritic cells were incubated with pHrodo™ Green E. coli BioParticles™ (#P35366, ThermoFisher) or Streptavidin Fluoresbrite® YG Microspheres, 2.0 μm (for simplicity, beads) at a 1:5 phagocyte: target ratio for the indicated times. When applicable, cells were pretreated for 1 hour with 5 μM erastin (#S7242, Bio-Connect B.V), 200 μM CP-91149 (#S2717, Bio-Connect B.V.), 0.2 mM 2-DG (2-Deoxy-D-glucose; #D8375-1G, Sigma), 5 μM UK5099 (#PZ0160, Sigma), 40 μM DON (6-Diazo-5-oxo-L-norleucine; #D2141-5 MG, Sigma), 10 μM 3-BP (3-Bromo-2-oxopropionic acid, #376817-M, Sigma), 10 mM Glutamate (#6106 Apr. 3, Sigma) before addition of targets.

[2] = system: dendritic cells; assay: Determination of glycogen concentration in dendritic cells; assay type: cell-based, mouse; conditions: CP-91149 added to erastin-treated BMDC
Method: Determination of glycogen concentration. The glycogen concentration was measured using a Glycogen Colorimetric/Fluorometric Assay Kit (#GENT-K646-10, BioVision) according to the manufacturer's instructions.

[3] = system: C57BL/6J mice; assay: Full-thickness skin wounding (8-mm punch biopsy), wound healing in wild-type mice; assay type: in vivo, mouse
Description: (§2) Skin wounding and erastin regimen. Full-thickness wounds were made as previously described^65.56 Briefly, wounds were made on shaved back skin by using 8-mm punch biopsy needles (Stiefel Instruments) under analgesia and general anesthesia in 8-week-old female C57BL/6J, B6.BKS (D)-Leprdb/J (db/db), GDF15KO, Slc7a11KO and control littermates. For wound healing experiments, assuming standard deviations of 10-15%, an experimental group of n=10 is needed to obtain statistical power of 90% (significance level 0.05) and detect a difference between means of 20%, using two-tailed paired T-testing. No animals were excluded from any experiment.
For topical applications, mice were intradermally injected with Imidazole ketone erastin (IKE at 20 mg kg^−1 in 100 μl PBS; MedChemExpress, #HY-114481) or recombinant human GDF-15 (0.7 mg kg^−1 in 100 μl PBS; R&D Systems, #9279-GD-050) or RSL3 (20 mg kg-1 in 100 μl PBS; Sellechem, #S8155) or the respective vehicle controls (DMSO or 4 mM HCl in 100 μl PBS) at the time of wounding and for two consecutive days. For the experiments indicated as ‘erastin regimen’ or vehicle regimen, 5 million apoptotic Jurkat cells were administrated once on day 0 in 50 μl PBS on top of back skin immediately after full-thickness excision biopsy. […]

[4] = system: dendritic cells; assay type: cell-based, mouse
Description: FIG. 6D, Assessment of erastin drug cytotoxicity in dendritic cells by measuring Sytox Green fluorescence.
FIG. 9B, Assessment of cytotoxicity of drugs tested on dendritic cells by measuring Sytox Green fluorescence.

[5] = system: db/db mice; assay: Full-thickness skin wounding, wound healing in diabetic db/db mice; assay type: in vivo, mouse; conditions: no apoptotic cell co-administration
Description: as §2
For topical applications, mice were intradermally injected with Imidazole ketone erastin (IKE at 20 mg kg^−1 in 100 μl PBS; MedChemExpress, #HY-114481) or recombinant human GDF-15 (0.7 mg kg^−1 in 100 μl PBS; R&D Systems, #9279-GD-050) or RSL3 (20 mg kg-1 in 100 μl PBS; Sellechem, #S8155) or the respective vehicle controls (DMSO or 4 mM HCl in 100 μl PBS) at the time of wounding and for two consecutive days. For the experiments indicated as ‘erastin regimen’ or vehicle regimen, 5 million apoptotic Jurkat cells were administrated once on day 0 in 50 μl PBS on top of back skin immediately after full-thickness excision biopsy. For the mice injected intradermally with supernatants from efferocytic dendritic cells, supernatants from dendritic cells cultured with apoptotic Jurkat cells for 16 h were collected, centrifuged to eliminate debris and frozen or lyophilized for preservation.

[6] = system: Slc7a11-deficient dendritic cells; assay: Efferocytosis by Slc7a11-deficient (Slc7a11 KO) dendritic cells; assay type: cell-based, mouse; conditions: Slc7a11 KO BMDC, apoptotic Jurkat targets
Method: as §1

N[C@@H](CCC(=O)O)C(=O)O [glutamate]
efferocytosis (apoptotic cell uptake) by dendritic cells [1]: boosted efferocytosis

CN(C)C(=O)[C@H](O)[C@H](Cc1ccccc1)NC(=O)c1cc2cc(Cl)ccc2[nH]1 [CP-91149]
glycogen levels in erastin-treated BMDC [2]: reversed the glycogen levels in erastin-treated BMDC almost to DMSO control | erastin-dependent increase in efferocytosis by dendritic cells [1]: strongly abrogated the erastin-dependent increase in efferocytosis

O=CC[C@@H](O)[C@H](O)[C@H](O)CO [2-DG, 2-Deoxy-D-glucose]
erastin-dependent increase in efferocytosis by dendritic cells [1]: abrogated the enhanced efferocytosis due to Slc7a11 inhibition

N#C/C(=C\c1cn(-c2ccccc2)c2ccccc12)C(=O)O [UK5099]
erastin-dependent increase in efferocytosis by dendritic cells [1]: had no impact on efferocytosis

[N-]=[N+]=CC(=O)CC[C@H](N)C(=O)O [DON, 6-Diazo-5-oxo-L-norleucine]
erastin-dependent increase in efferocytosis by dendritic cells [1]: marginally decreased the erastin-mediated augmented efferocytosis

COC(=O)c1ccc([C@@H]2c3[nH]c4ccccc4c3C[C@@H](C(=O)OC)N2C(=O)CCl)cc1 [RSL3]
wound healing, given with apoptotic cells at day 0 ([3]; apoptotic Jurkat cells once on day 0, drug from day 0 to day 2): did not improve wound healing

O=C(O)C(=O)CBr [3-BP, 3-Bromo-2-oxopropionic acid]
erastin-dependent increase in efferocytosis by dendritic cells [1]: dampened the enhanced inhibition due to erastin treatment

CCOc1ccccc1-n1c(C(C)N2CCN(C(=O)COc3ccc(Cl)cc3)CC2)nc2ccccc2c1=O (stereo not drawn) [erastin]
dendritic cell viability [4]: did not affect dendritic cell viability

CC(C)Oc1ccc(C(=O)Cn2ccnc2)cc1-n1c(CN2CCN(C(=O)COc3ccc(Cl)cc3)CC2)nc2ccccc2c1=O [IKE, Imidazole ketone erastin]
diabetic wound healing, substance alone [5]: improves skin wound healing in diabetic mice | wound healing, substance alone ([3]; full-thickness wound, no co-treatment): did not improve wound healing

COc1ccc(N(C(=O)CCl)C(C(=O)NCCc2ccccc2)c2cccs2)cc1Cl (stereo not drawn) [ML-162]
efferocytosis (apoptotic cell uptake) by dendritic cells [1]: did not enhance efferocytosis; also recorded: does not enhance efferocytosis by dendritic cells

C=C1[C@@H](C)[C@H]2[C@H](Cc3ccccc3)NC(=O)[C@]23[C@H](OC(C)=O)/C=C/[C@@](C)(O)C(=O)[C@@H](C)C/C=C/[C@H]3[C@@H]1O [cytochalasin D]
efferocytosis by Slc7a11-deficient dendritic cells [6]: abrogated

B1: rGDF15: recombinant human GDF-15 (R&D Systems), member of the TGF-β superfamily (protein, UniProt Q99988 195-308, looked up)
Growth/differentiation factor …: ARARNGDHCPLGPGRCCRLHTVRASLEDLGWADWVLSPREVQVTMCIGACPSQFRAANMHAQIKTSLHRLKPDTVPAPCCVPASYNPMVLIQKTDTGVSLQTYDDLLAKDCHCI
diabetic wound healing, substance alone [5]: significantly improved wound healing in the db/db mice | diabetic wound healing, substance alone ([5]; listed as recombinant GDF15): boosts healing
